Experimental findings from the METLIN SMRT retention time set (Domingo-Almenara et al. 2019) are described below.

SMILES strings stand for the structures.

A short description of this data set: gradient 5% acetonitrile 3 min, to 50% in 2 min, to 85% in 15 min, held 3 min, 100 µL/min. To be noted: column: Zorbax Extend-C18 2.1 x 50 mm; eluents: water / acetonitrile, 0.1% formic acid. In a few lines:
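Using water and acetonitrile that each contained 0.1% formic acid, mixtures of ~100 pure standards were separated at 100 μL/min on a Zorbax Extend-C18 column (2.1 × 50 mm, 1.8 μm). The HPLC fed a quadrupole time-of-flight mass spectrometer working in positive and negative ionization mode, with dead and dwell volumes of 40 μL and 900 μL. Data were acquired over 3 months. Retention time was read from computationally picked adduct peaks after manual inspection of each.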
Turning to `O=C(O)C1CN(CCCP(=O)(O)O)CCN1` (stereo not given), the RP-LC retention time turned out to be 627 s.

`Cc1ccc(CNC(=O)C2CCCN(c3nnc4c(Cl)cccn34)C2)o1` (stereo not given) gave an RP-LC retention time of 704 s.

`CCCn1cc(-c2ccncc2)cc1C(=O)NC1CCN(Cc2ccccc2)CC1` returned an RP-LC retention time of 561 s.

Consider `Cc1cc(Nc2cc(N3CCN(C)CC3)nc(/C=C/c3ccccc3)n2)n[nH]1`, for which the RP-LC retention time was found to be 625 s. As for `O=S(=O)(Cc1ccc(F)cc1)NCC1(c2ccccc2)CCOCC1`, the figure is 818 s; as for `Cc1cc(=O)n(CC(=O)N(C)c2ccccc2)c(N2CCOCC2)n1`, 657 s.

Consider `CCc1ccccc1NC(=O)C1CCCN(S(=O)(=O)c2ccc(OC)c(C)c2)C1` (stereo not given), for which the RP-LC retention time amounted to 1020 s. Compound `O=c1n(CCOc2ccc(F)cc2)nc2c(S(=O)(=O)N3CCCC3)cccn12` came in with an RP-LC retention time of 824 s. On to `O=C(NC1CCCCC1)C1CCN(S(=O)(=O)c2cc(C(=O)N3CCOCC3)cs2)CC1`, for which the RP-LC retention time turned out to be 710 s. As for `Cc1cccc(NC(=O)C2CCN(c3nnc4cccc(C)n34)CC2)c1`, the figure is 706 s; as for `Clc1ccc(Cl)c(-c2ccc(CNCCN3CCNCC3)o2)c1`, 603 s.

In the case of `COc1ccc(-c2ccnc3nc(CCc4ccc(OC)c(OC)c4)nn23)cc1`, the RP-LC retention time was found to be 859 s. As for `C#CCSc1nc2ccccc2c2nc(-c3ccncc3)nn12`, the figure is 977 s; as for `CCNC(=O)c1sc2nc(-c3cccc(C)c3)c(NCCOC)n2c1C`, 737 s. As for `CSc1ccccc1CN1CCC(CNC(=O)Nc2c(F)cccc2F)CC1`, the figure is 580 s.

Consider `COc1ccc(-n2ncc3c(=O)n(Cc4nc(-c5ccc(C)c(C)c5)no4)cnc32)cc1`, for which the RP-LC retention time was determined as 1080 s. As for `CCCNC(=O)c1cn(-c2ccc(S(=O)(=O)N3CCCC(C)C3)cn2)cn1` (stereo not given), the figure is 884 s; as for `N#Cc1cccc(NC(=O)c2cccn2Cc2noc(-c3ccccc3)n2)c1`, 1040 s; as for `CCn1c(=O)c2ccn(CC(=O)Nc3ccc(Cl)cc3)c2n(CC)c1=O`, 747 s. The figure for `CC(C)(C)c1cc(C(=O)Nc2ccccc2)nc2ccnn12` is 1250 s. As for `Cc1[nH]c(C(=O)N2CCC(CC(=O)NC3CCCC3)CC2)c(C)c1C(=O)OC(C)C`, the figure is 778 s; as for `CCc1ccc(NC(=O)N2CCCC(Cn3cnc4cccnc43)C2)cc1` (stereo not given), 733 s. In the case of `O=C(CNC(=O)c1c[nH]c2ccccc12)Nc1cc(Cl)ccc1O`, the RP-LC retention time was found to be 695 s. The figure for `COc1ccc(-c2cc(-c3ccccc3)c(-c3ccccc3)nn2)cc1` is 1100 s; for `CC(C)c1nccn1C1CN(C(=O)COc2ccc(F)cc2)C1` it is 573 s. The figure for `COc1cccc(-c2nc(C3CCN(S(=O)(=O)c4ccc(F)cc4)CC3)no2)c1` is 1100 s; for `O=C(NC1CCN(c2cc(-c3ccccc3)[nH]n2)C1)c1ccc2cc[nH]c2c1` (stereo not given) it is 792 s; for `CC(=O)Nc1ccc(NC(=O)c2ccc(-c3ccnc(N4CCCC4)n3)cc2)cc1` it is 663 s. As for `COc1ccc(N2CCN(C(=O)CN3C(=O)NC(c4ccc(Cl)cc4)C4=C3COC4=O)CC2)cc1` (stereo not given), the figure is 752 s; as for `CCn1ccc(C(=O)NC2CCN(C3=NS(=O)(=O)C(c4ccc(F)cc4)=C3C)CC2)n1`, 777 s; as for `COc1ccc(C(=O)N(Cc2cc(OC)c(OC)c(OC)c2)C2CCS(=O)(=O)C2)cc1Cl` (stereo not given), 817 s. For the compound `COc1cc(NS(=O)(=O)c2ccc3c(c2)-c2oncc2CO3)cc(OC)c1OC`, the RP-LC retention time turned out to be 805 s. As for `Cc1[nH]nc(-c2c(C)sc(C)c2S(=O)(=O)NCc2ccc(Cl)cc2)c1C`, the figure is 1100 s; as for `CCc1ccccc1NC(=O)N1CCC2(CC1)NC(=O)c1cccc(Cl)c1N2`, 766 s. In turn, `Cc1nn(-c2ccccc2)c(C)c1S(=O)(=O)N1CCC(C(=O)NC2CCCC2)CC1` displayed an RP-LC retention time of 860 s.

For the compound `CCn1cc(CC(=O)NCc2ccc3c(c2)OCO3)c2cccnc21`, the RP-LC retention time was determined as 690 s. The figure for `COc1ccc(NC(=O)Cn2c(=O)c3cc(-c4ccco4)nn3c3ncccc32)c(OC)c1` is 797 s. With `Cc1ccc2[nH]cc(CCN3CC(C(=O)NCCc4ccc(F)cc4)CC3=O)c2c1` (stereo not given), the RP-LC retention time is 821 s. As for `CC1CCCN(c2ccc(-c3noc(CN4CCc5ccccc5C4)n3)cn2)C1` (stereo not given), the figure is 970 s; as for `O=C(c1ccc(OCC2CCCN2C(=O)c2ccccc2F)cc1)N1CCCC1` (stereo not given), 813 s. The figure for `O=C(c1cccnc1)N1CCCCC1c1nncn1-c1ccccc1` (stereo not given) is 596 s. As for `CCOCCCNC(=O)CCC(=O)N1CC2CCCN2c2ccccc21` (stereo not given), the figure is 729 s.

`COc1ccc(F)cc1S(=O)(=O)N1CCC(OCc2noc(C3CCCO3)n2)CC1` (stereo not given) returned an RP-LC retention time of 870 s. As for `CN(C)C[C@@H]1CN(c2ncccn2)C[C@H]1NC(=O)NCc1ccco1`, the figure is 550 s; as for `Fc1ccc(-c2nnc(-c3ccc(-n4ccnc4)nc3)o2)cc1`, 648 s; as for `CCOc1ccc(CC(=O)OCn2nnc3ccccc3c2=O)cc1`, 914 s. The figure for `Cc1cc(C)c2nc(-c3ccccc3Br)cc(C(=O)O)c2c1` is 1130 s. For the compound `O=S(=O)(c1cc(-c2nnc(C3CCC3)o2)co1)N1CCN(c2ccc(F)cc2)CC1`, the RP-LC retention time was 1250 s. `O=C(Cn1c(=O)cc(-c2nc(C3CC3)no2)c2ccccc21)NCCc1ccc(Cl)cc1` yielded an RP-LC retention time of 1000 s.

The compound `Cc1nnc(C2CCCCCN2S(=O)(=O)c2ccc(F)c(C)c2)o1` (stereo not given) came in with an RP-LC retention time of 893 s. As for `COCCNC(=O)C1CCCN(S(=O)(=O)c2cc(OC)ccc2OC)C1` (stereo not given), the figure is 687 s; as for `CC1(C)CCC=[N+]1[O-]`, 487 s.

For the compound `Cn1cnc(S(=O)(=O)NCCN2C(=O)C3(CCCCC3)C2c2ccccc2)c1` (stereo not given), the RP-LC retention time was 722 s. As for `Cc1ccc(-c2ccc3nnc(CCC(=O)NC4CCC(C)CC4)n3n2)cc1C` (stereo not given), the figure is 854 s; as for `Cc1cc(C(=O)NC2CCCC2)nc2cc(-c3cccs3)nn12`, 655 s.

`CCCn1c(C)cnc1C1CN(S(=O)(=O)Cc2ccccc2)C1` gave an RP-LC retention time of 652 s.

Regarding `C[C@@H](C(=O)O)c1ccc(-c2ccccc2)c(F)c1`, the RP-LC retention time is 974 s. As for `CC1(C(=O)NCc2ccc(F)cc2)CN(S(=O)(=O)c2ccccc2)CC(=O)N1C1CC1` (stereo not given), the figure is 816 s; as for `COc1ccc(NC(=O)N2CCN(Cc3nc4cc(-c5ccccc5)ccc4o3)CC2)cc1`, 823 s.

In the case of `CCCN1CCN(C(=O)C2CC(=O)N(c3ccc4c(c3)CCN4C(=O)CC)C2)CC1` (stereo not given), the RP-LC retention time worked out at 566 s. The figure for `COc1ccc(CN2CC[C@@H]3CN(S(C)(=O)=O)[C@@H]3C2)c(OC)c1` is 580 s. Take `CCC(=O)n1nc(C)c(S(=O)(=O)N2CCC(C)CC2)c1C`: the RP-LC retention time came out at 1150 s. As for `CCc1cc(C(=O)Nc2ccc(OC)cc2)nc2ccnn12`, the figure is 917 s; as for `O=C(CCNc1c(-c2cccc(F)c2)nc2cnccn12)NCc1ccccc1Cl`, 780 s. The figure for `CCCC(=O)N1CCN(c2ccc(=O)n(-c3ccc(C(C)C)cc3)n2)CC1` is 851 s.

As for `Cc1cc(OCC(=O)N2CCCCC2)nc(-c2ccc(Cl)cc2)n1`, the RP-LC retention time was 790 s. As for `Cc1cccc(NC(=O)Cn2c(=O)n(-c3ccccc3)c3ncccc32)c1C`, the figure is 832 s. The figure for `O=C1CCCc2cc(S(=O)(=O)N3CCC(C(=O)NCc4ccccc4Cl)CC3)ccc2N1` is 760 s. The figure for `CN(c1cccc(Cl)c1)S(=O)(=O)c1cc2n(c1)CCCNC2=O` is 726 s; for `O=C(COc1ccc(Cl)cc1)Nc1c(-c2ccc(F)cc2)nc2ccccn12` it is 744 s; for `Cc1ccc(C(=O)NCc2nc(-c3ccc4c(c3)ncn4C3CCCC3)no2)cc1` it is 719 s. Take `O=C(c1ccsc1)N1CCN(c2nc(CN3CCCCC3)cs2)CC1`: the RP-LC retention time was determined as 597 s.

`Cc1ccc2nc(-c3cccc(Cl)c3)c(Nc3ccc4c(c3)OCO4)n2c1` displayed an RP-LC retention time of 746 s. As for `Cc1cccc(CN2C(=O)CN(S(C)(=O)=O)CC2(C)C(=O)NCc2ccccc2)c1` (stereo not given), the figure is 838 s; as for `CC(C)(C)NC(=O)c1cc2c(n(-c3ccc(C(F)(F)F)cc3)c1=O)CCCC2=O`, 949 s; as for `Cc1ccc2nc(N3CCN(C(=O)C(C)(C)C)CC3)c(-c3noc(-c4ccccc4)n3)cc2c1`, 1370 s. As for `c1ccc(C(NCCNC(c2ccccc2)c2ccccc2)c2ccccc2)cc1`, the figure is 849 s. The figure for `O=C(Nc1cccc(Cl)c1)N1CCN(c2cnn3c(C4CC4)nnc3c2)CC1` is 694 s; for `CCC1Oc2ccc(S(=O)(=O)N3CCC(C(=O)NC4CCCCCC4)CC3)cc2NC1=O` (stereo not given) it is 951 s; for `COc1ccc(Cc2nc3nccc(-c4cc(OC)c(OC)c(OC)c4)n3n2)cc1` it is 860 s.
